This note sets out measurements from patent publication US8871753B2, “Macrocyclic compounds and their use as kinase inhibitors” (Incyte Corporation, priority 2008, dated 2014).

Common to all, as to format: biochemical
In assay [1] the target is T1, human JAK2 (a.a. 828-1132) (Homo sapiens, UniProt O60674).
T1 construct: JAK2 (a.a. 828-1132); His tag (N); made in house; host or cells: insect cells (baculovirus)
Nature of the assay: In vitro JAK kinase assay (HTRF, phosphorylation of a biotinylated peptide), JAK2. The gist of the method: (§1)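 Kinase reactions ran at room temperature for 1 h with ATP matched per isoform (JAK1 90 μM, JAK2 30 μM, JAK3 3 μM). After an EDTA stop, the phosphorylated biotin-peptide was read by HTRF using Eu-Py20 and SA-APC after 40 min binding.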

The target of assay [2] is TYK2 (Homo sapiens, UniProt P29597). Nature of the assay: TYK2 kinase inhibition (Table A1).
Sequence of TYK2 (P29597 whole entry): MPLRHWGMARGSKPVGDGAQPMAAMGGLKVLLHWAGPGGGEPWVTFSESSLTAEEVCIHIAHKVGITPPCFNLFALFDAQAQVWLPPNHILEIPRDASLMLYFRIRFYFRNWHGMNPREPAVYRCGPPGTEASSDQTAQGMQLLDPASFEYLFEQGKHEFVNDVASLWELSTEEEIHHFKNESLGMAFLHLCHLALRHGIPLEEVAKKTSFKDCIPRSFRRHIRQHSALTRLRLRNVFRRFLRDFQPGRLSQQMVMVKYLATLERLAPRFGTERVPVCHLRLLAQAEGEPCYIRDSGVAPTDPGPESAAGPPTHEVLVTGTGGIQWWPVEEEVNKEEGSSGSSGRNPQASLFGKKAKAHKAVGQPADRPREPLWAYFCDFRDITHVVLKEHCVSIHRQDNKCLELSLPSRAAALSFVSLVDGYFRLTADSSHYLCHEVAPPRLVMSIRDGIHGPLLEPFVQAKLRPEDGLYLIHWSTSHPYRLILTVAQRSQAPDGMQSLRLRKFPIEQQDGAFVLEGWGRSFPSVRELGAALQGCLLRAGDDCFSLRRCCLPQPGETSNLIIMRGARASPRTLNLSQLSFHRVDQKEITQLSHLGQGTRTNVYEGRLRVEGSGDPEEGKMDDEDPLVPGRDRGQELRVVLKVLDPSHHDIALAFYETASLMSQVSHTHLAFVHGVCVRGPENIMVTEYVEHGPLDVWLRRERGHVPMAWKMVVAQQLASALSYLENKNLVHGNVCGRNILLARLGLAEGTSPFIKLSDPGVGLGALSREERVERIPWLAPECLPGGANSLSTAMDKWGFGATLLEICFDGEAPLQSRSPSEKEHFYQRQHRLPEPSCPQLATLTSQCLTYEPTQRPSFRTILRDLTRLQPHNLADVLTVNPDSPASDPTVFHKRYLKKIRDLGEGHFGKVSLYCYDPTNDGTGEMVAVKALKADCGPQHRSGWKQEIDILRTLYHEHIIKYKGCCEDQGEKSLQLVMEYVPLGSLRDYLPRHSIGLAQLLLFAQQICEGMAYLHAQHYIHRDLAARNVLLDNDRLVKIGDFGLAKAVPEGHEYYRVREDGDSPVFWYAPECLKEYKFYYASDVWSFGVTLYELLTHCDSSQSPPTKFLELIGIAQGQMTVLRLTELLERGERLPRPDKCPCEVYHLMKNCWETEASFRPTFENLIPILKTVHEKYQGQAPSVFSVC
Assay [3] addresses T2, human JAK3 (a.a. 781-1124) (Homo sapiens, UniProt P52333).
T2 construct: JAK3 (a.a. 781-1124); His tag (N); made in house; host or cells: insect cells (baculovirus)
Nature of the assay: In vitro JAK kinase assay (HTRF, phosphorylation of a biotinylated peptide), JAK3. In outline:
as §1

In assay [4] the target is T3, human JAK1 (a.a. 837-1142) (Homo sapiens, UniProt P23458).
T3 construct: human JAK1 (a.a. 837-1142); His tag (N); made in house; host or cells: insect cells (baculovirus)
T3 sequence (P23458 849-1154): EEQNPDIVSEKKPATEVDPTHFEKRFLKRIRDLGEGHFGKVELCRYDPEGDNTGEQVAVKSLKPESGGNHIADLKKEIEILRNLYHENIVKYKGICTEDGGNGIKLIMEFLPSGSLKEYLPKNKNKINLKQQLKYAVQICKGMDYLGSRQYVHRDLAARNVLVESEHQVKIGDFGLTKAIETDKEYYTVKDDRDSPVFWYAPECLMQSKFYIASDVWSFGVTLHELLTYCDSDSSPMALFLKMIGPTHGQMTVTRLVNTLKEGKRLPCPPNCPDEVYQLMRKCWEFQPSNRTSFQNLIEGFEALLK
Nature of the assay: In vitro JAK kinase assay (HTRF, phosphorylation of a biotinylated peptide), JAK1. The note with it: read-out: JAK1 IC50. The gist of the method: as §1

For assay [5], the target named is T4, Recombinant Human Anaplastic Lymphoma Kinase (Homo sapiens, UniProt Q9UM73).
T4 construct: purchased Invitrogen, Carlsbad, Calif
T4 sequence (Q9UM73 19-1620): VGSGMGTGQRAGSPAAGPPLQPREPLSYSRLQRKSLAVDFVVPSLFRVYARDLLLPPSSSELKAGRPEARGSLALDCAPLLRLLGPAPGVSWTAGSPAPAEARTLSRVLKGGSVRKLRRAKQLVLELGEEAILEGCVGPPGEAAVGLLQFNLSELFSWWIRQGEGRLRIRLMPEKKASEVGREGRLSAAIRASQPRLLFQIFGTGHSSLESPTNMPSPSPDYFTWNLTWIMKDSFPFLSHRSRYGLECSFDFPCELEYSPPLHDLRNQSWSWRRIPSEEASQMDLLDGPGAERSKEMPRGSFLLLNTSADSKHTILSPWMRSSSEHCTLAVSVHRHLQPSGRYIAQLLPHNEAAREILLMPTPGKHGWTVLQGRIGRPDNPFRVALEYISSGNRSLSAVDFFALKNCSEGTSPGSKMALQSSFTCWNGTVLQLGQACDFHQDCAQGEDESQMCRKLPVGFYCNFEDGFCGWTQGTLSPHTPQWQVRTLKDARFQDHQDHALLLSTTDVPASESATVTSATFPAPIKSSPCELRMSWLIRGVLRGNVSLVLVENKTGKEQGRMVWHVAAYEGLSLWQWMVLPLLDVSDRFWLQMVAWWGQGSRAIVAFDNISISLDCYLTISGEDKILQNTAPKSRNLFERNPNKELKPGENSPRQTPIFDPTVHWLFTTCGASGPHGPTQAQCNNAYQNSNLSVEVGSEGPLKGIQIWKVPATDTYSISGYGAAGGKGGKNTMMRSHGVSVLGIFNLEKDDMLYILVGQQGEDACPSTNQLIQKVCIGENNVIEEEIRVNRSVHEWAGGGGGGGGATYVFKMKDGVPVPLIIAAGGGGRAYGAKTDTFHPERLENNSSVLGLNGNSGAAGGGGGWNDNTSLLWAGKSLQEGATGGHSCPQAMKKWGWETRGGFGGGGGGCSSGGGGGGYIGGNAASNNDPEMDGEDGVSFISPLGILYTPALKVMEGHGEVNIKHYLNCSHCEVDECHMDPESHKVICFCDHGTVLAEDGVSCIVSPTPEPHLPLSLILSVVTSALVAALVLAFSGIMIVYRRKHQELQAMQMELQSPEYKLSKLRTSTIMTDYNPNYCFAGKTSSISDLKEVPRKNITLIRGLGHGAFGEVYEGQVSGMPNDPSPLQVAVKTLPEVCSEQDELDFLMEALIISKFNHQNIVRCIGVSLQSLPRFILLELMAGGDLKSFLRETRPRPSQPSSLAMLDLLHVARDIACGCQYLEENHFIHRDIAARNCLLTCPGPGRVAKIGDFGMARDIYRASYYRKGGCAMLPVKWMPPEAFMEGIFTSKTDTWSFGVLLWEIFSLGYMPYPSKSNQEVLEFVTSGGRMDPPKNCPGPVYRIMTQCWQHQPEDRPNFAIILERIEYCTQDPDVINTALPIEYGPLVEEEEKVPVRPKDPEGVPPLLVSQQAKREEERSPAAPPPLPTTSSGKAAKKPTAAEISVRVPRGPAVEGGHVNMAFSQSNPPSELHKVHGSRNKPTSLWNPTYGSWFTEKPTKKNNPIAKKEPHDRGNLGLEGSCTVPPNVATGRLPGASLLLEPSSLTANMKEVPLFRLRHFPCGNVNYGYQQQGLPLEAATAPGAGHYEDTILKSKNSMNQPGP
Nature of the assay: ALK HTRF kinase assay. An excerpt:
Materials: Recombinant Human Anaplastic Lymphoma Kinase was purchased from Invitrogen, Carlsbad, Calif. Peptide substrate (Biotin-[…]-amide) was custom synthesized at EZBiolab, Westfield, Ind. Streptavidin conjugated SureLight-Allophycocyania and LANCE Eu-W1024 labeled anti-phosphotyrosine antibody were from Perkin-Elmer, Boston, Mass. Microplates were from Corning Inc., Acton, Mass. All other reagents were from Sigma, St. Louis, Mo.
Plates were read in Fusion α-FP instrument (Perkin-Elmer). […] Signal=Bottom+(Top−Bottom)/(1+10^((Log(IC50)−Log [I])*Hill Slope) Bottom and Top refer to the post and pre-transition baselines, respectively.

Setting [6] is: compound at a concentration of 500 nM or 1 mM (not specified), cells shown as percentage.
Setting [7] is: method AA1 (30 μM ATP) or AA2 (1000 μM ATP), not stated per value.
Setting [8] is: method AA1 (3 μM ATP) or AA2 (1000 μM ATP), not stated per value.
The mark [9] stands for this setting: method AA1 (90 μM ATP) or AA2 (1000 μM ATP), not stated per value.
[10] abbreviates: compound at 500 nM or 1 mM, 90 μM ATP.
Where [11] appears, read: Table B1, cells without percent sign.

Molecules are shown by their SMILES. Where a name gives a salt, the structure may show the parent alone. Read-outs that look alike come from different tables or passages of the source.

T2 sequence (P52333 781-1124): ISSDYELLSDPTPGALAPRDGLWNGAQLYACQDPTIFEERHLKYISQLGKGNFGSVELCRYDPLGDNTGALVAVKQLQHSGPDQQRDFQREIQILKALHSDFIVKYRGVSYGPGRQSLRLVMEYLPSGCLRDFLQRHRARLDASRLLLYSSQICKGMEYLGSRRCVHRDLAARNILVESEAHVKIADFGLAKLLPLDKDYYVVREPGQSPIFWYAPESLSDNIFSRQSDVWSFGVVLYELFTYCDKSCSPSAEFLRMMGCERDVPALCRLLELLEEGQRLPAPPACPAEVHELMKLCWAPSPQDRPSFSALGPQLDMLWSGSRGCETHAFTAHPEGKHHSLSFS
T1 sequence (O60674 828-1132): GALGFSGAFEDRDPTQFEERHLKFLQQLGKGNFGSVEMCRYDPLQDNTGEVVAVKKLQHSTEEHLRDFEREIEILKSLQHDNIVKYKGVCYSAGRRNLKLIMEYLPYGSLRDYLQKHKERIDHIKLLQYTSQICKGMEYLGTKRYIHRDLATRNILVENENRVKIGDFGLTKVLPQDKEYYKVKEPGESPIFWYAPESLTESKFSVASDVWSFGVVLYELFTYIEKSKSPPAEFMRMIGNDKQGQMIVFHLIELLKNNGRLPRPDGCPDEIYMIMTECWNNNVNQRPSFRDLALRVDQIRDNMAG

For the compound `Cc1cnc(NC(=O)Nc2ccc3cc2CCc2cccc(c2)Nc2ncc(Cl)c(n2)N3)s1` [Example B248, N-[6-Chloro-2,4,8,22-tetraazatetracyclo[14.3.1.1(3,7).1(9,13)]docosa-1(20),3(22),4,6,9(21),10,12,16,18-nonaen-12-yl]-N′-(5-methyl-1,3-thiazol-2-yl)urea trifluoroacetate], the IC50 in assay [1] (Table B1) worked out at 171 nM; in assay [2] (Table B1), 25 nM; in assay [3] (Table B1), 46 nM; in assay [4] (Table B1), 77 nM. Further, the “ALK % of inhibition at a concentration of 500 nM or 1 mM” value (shortened to “ALK % of inhibition”) in assay [5] (setting [6]) is recorded as 32%.

Take `Cc1cc(C(=O)Nc2ccc3cc2CCc2cccc(c2)Nc2ncc(Cl)c(n2)N3)no1` [Example B68, N-[6-Chloro-2,4,8,22-tetraazatetracyclo[14.3.1.1(3,7).1(9,13)]docosa-1(20), 3(22),4,6,9(21),10,12,16,18-nonaen-12-yl]-5-methylisoxazole-3-carboxamide trifluoroacetate]: the IC50 in assay [1] (Table B1) is 2.3 nM; in assay [2] (Table B1), 3.6 nM; in assay [3] (Table B1) it was 19 nM; in assay [4] (Table B1) it was 1.4 nM. The “ALK % of inhibition” value in assay [5] (setting [6]) was 19%.

`O=C(CC1CCN(S(=O)(=O)c2ccccc2)CC1)Nc1ccc2cc1CCc1cccc(c1)Nc1ncc(Cl)c(n1)N2` [Example A205, N-[6-Chloro-2,4,8,22-tetraazatetracyclo[14.3.1.1(3,7).1(9,13)]docosa-1(20),3(22),4,6,9(21),10,12,16,18-nonaen-12-yl]-2-[1-(phenylsulfonyl)piperidin-4-yl]acetamide trifluoroacetate]: the IC50 is 199 nM in assay [1] (setting [7]), over 200 nM in assay [2], over 200 nM in assay [3] (setting [8]) and 52 nM in assay [4] (setting [9]). Also, the “ALK % of inhibition” value in assay [5] (setting [10]) is recorded as 23%.

For `O=C(CC1CCN(c2cnccn2)CC1)Nc1ccc2cc1CCc1cncc(c1)Nc1ncc(Cl)c(n1)N2` [Example A171, N-[6-Chloro-2,4,8,18,22-pentaazatetracyclo[14.3.1.1(3,7).1(9,13)]docosa-1(20),3(22),4,6,9(21),10,12,16,18-nonaen-12-yl]-2-(1-pyrazin-2-ylpiperidin-4-yl)acetamide tris(trifluoroacetate)], the IC50 in assay [1] (setting [7]) is 118 nM; in assay [2] it was 300 nM; in assay [3] (setting [8]) it was over 1000 nM; in assay [4] (setting [9]), 12 nM. Also, in assay [5] (setting [10]), the “ALK % of inhibition” value is listed as 29%.

Turning to `O=C(NCc1ccncc1)c1cc2cc(c1)Nc1nc(ncc1Cl)Nc1cccc(c1)CC2` [Example B11, 6-Chloro-N-(pyridin-4-ylmethyl)-2,4,8,22-tetraazatetracyclo[14.3.1.1(3,7).1(9,13)]docosa-1(20),3(22),4,6,9(21),10,12,16,18-nonaene-11-carboxamide bis(trifluoroacetate)], the concentration for half-maximal inhibition (IC50) in assay [1] (Table B1) was determined as 92 nM; in assay [2] (Table B1), 275 nM; in assay [3] (Table B1), 144 nM; in assay [4] (Table B1), 97 nM; in assay [5] (setting [11]), 2370 nM.

Take `Clc1cnc2nc1Nc1cccc(c1)SCc1cccc(c1)N2` [Example D1, 6-Chloro-14-thia-2,4,8,22-tetraazatetracyclo[14.3.1.1(3,7).1(9,13)]docosa-1(20),3(22),4,6,9(21),10,12,16,18-nonaene trifluoroacetate]: the IC50 in assay [1] (Table D1) is 9.6 nM; in assay [2] (Table D1), 14 nM; in assay [3] (Table D1) it was 16 nM; in assay [4] (Table D1), 13 nM; in assay [5] (Table D1, 90 μM ATP), 620 nM.

For `O=C(Nc1ccccn1)Nc1ccc2cc1CCc1cccc(c1)Nc1ncc(Cl)c(n1)N2` [Example B253, N-[6-Chloro-2,4,8,22-tetraazatetracyclo[14.3.1.1(3,7).1(9,13)]docosa-1(20),3(22),4,6,9(21),10,12,16,18-nonaen-12-yl]-N′-pyridin-2-ylurea bis(trifluoroacetate)], the IC50 in assay [1] (Table B1) was determined as 72 nM; in assay [2] (Table B1) it was 173 nM; in assay [3] (Table B1), 695 nM; in assay [4] (Table B1), 90 nM. Besides, the “ALK % of inhibition” value in assay [5] (setting [6]) worked out at 4.9%.

Turning to `Cc1cccc(N2CCC(CC(=O)Nc3ccc4cc3CCc3cncc(c3)Nc3ncc(Cl)c(n3)N4)CC2)c1C#N` [Example A236, N-[6-Chloro-2,4,8,18,22-pentaazatetracyclo[14.3.1.1(3,7).1(9,13)]docosa-1(20),3(22),4,6,9(21),10,12,16,18-nonaen-12-yl]-2-[1-(2-cyano-3-methylphenyl)piperidin-4-yl]acetamide tris(trifluoroacetate)], the IC50 in assay [1] (setting [7]) was 150 nM; in assay [2], over 400 nM; in assay [3] (setting [8]), over 400 nM; in assay [4] (setting [9]), 1.7 nM. Besides, the “ALK % of inhibition” value in assay [5] (setting [10]) came out at 16%.

For the compound `CNC(=O)Nc1ccc2cc1CCc1cccc(c1)Nc1ncc(Cl)c(n1)N2` [Example B114, N-[6-Chloro-2,4,8,22-tetraazatetracyclo[14.3.1.1(3,7).1(9,13)]docosa-1(20), 3(22),4,6,9(21),10,12,16,18-nonaen-12-yl]-N′-methylurea trifluoroacetate], the IC50 stood at 2.9 nM in assay [1] (Table B1), 5.4 nM in assay [2] (Table B1), 13 nM in assay [3] (Table B1) and 0.81 nM in assay [4] (Table B1). Besides, the “ALK % of inhibition” value in assay [5] (setting [6]) is 24%.

Consider `O=C(CC1CCN(C(=O)c2ccno2)CC1)Nc1ccc2cc1CCc1cncc(c1)Nc1ncc(Cl)c(n1)N2` [Example A128, N-[6-Chloro-2,4,8,18,22-pentaazatetracyclo[14.3.1.1(3,7).1(9,13)]docosa-1(20),3(22),4,6,9(21),10,12,16,18-nonaen-12-yl]-2-[1-(isoxazol-5-ylcarbonyl)piperidin-4-yl]acetamide bis(trifluoroacetate)], for which the IC50 in assay [1] (setting [7]) worked out at 4.1 nM; in assay [2], 1.6 nM; in assay [3] (setting [8]) it was 64 nM; in assay [4] (setting [9]), 0.6 nM. In addition, the “ALK % of inhibition” value in assay [5] (setting [10]) was found to be 34%.

With `O=C(Nc1ccc2cc1CCc1cccc(c1)Nc1ncc(Cl)c(n1)N2)c1cccs1` [Example B34, N-[6-Chloro-2,4,8,22-tetraazatetracyclo[14.3.1.1(3,7).1(9,13)]docosa-1(20),3(22),4,6,9(21),10,12,16,18-nonaen-12-yl]thiophene-2-carboxamide trifluoroacetate], the IC50 is 1 nM in assay [1] (Table B1); 5.6 nM in assay [2] (Table B1); 13 nM in assay [3] (Table B1); 0.85 nM in assay [4] (Table B1); 470 nM in assay [5] (setting [11]).

As to `O=C(Nc1cccc(Cl)c1)Nc1ccc2cc1CCc1cccc(c1)Nc1ncc(Cl)c(n1)N2` [Example B85, N-(3-Chlorophenyl)-N′-[6-chloro-2,4,8,22-tetraazatetracyclo[14.3.1.1(3,7).1(9,13)]docosa-1(20),3(22),4,6,9(21),10,12,16,18-nonaen-12-yl]urea trifluoroacetate], the IC50 in assay [1] (Table B1) was 2.7 nM; in assay [2] (Table B1) it was 2.2 nM; in assay [3] (Table B1), 39 nM; in assay [4] (Table B1) it was 1.4 nM; in assay [5] (setting [11]), over 1000 nM.

`O=C(Nc1ccc2cc1CCc1cccc(c1)Nc1ncc(Cl)c(n1)N2)C1CCCN(C(=O)Nc2ccccc2)C1` (stereo not shown) [Example A50, N(3)-[6-Chloro-2,4,8,22-tetraazatetracyclo[14.3.1.1(3,7).1(9,13)]docosa-1(20),3(22),4,6,9(21),10,12,16,18-nonaen-12-yl]-N(1)-phenylpiperidine-1,3-dicarboxamide trifluoroacetate]: the IC50 in assay [1] (setting [7]) is 6.5 nM; in assay [2], 21 nM; in assay [3] (setting [8]), 13 nM; in assay [4] (setting [9]), 2.4 nM. For the same compound, in assay [5] (setting [10]), the “ALK % of inhibition” value stood at 37%.

Regarding `Cc1nc(S(=O)(=O)Nc2cc3cc(c2)OCCSc2cccc(c2)Nc2nc(ncc2Cl)N3)cn1C` [Example D69, N-[6-Chloro-17-oxa-14-thia-2,4,8,24-tetraazatetracyclo[16.3.1.1(3,7).1(9,13)]tetracosa-1(22),3(24),4,6,9(23),10,12,18,20-nonaen-20-yl]-1,2-dimethyl-1H-imidazole-4-sulfonamide bis(trifluoroacetate)], the IC50 in assay [1] (Table D1) turned out to be 1.4 nM; in assay [2] (Table D1) it was 8.4 nM; in assay [3] (Table D1) it was 8.6 nM; in assay [4] (Table D1), 3.5 nM; in assay [5] (Table D1, 90 μM ATP), 160 nM.
